Data taken from US6815414B2, “Pharmaceutical compositions for the treatment of helicobacter pylori-associated disorders” (Vecta Ltd., priority 1998, dated 2004).
“Also recorded” adds a separate entry of the source. No end group written: not given here.

Experiments:
[1] = system: control bacteria (E. coli, S. pneumonia, C. jejuni); assay: Radioactive gastrin uptake by control bacteria; format: cell-based; settings: 500 nmol/l, 45 min, 4° C. or 37° C.; autoradiography
Procedure: (§1) H. pylori (H.P.), E. coli (E.C.), S. pneumonia (S.P.) and C. jejuni (C.J.) bacteria were incubated for 45 minutes with ^125I-labeled gastrin. Incubation was at 4° C. or 37° C. Following initial incubation, proteinase K (P.K) was added for 30 minutes, after which bacteria were washed and blotted. One experiment representative of two.
(§2) To assess labeled gastrin uptake, bacterial pellets were resuspended in 200 μl Brucella broth containing 500 nmol/l ^125I-labeled gastrin (IncStar Pharmatrade). Incubation was at either 4° C. or 37° C. for 45 minutes. Bacteria were washed three times in PBS, resuspended and incubated for 30 minutes in Brucella broth containing proteinase K (Promega) at a concentration of 25 ng/ml. Subsequently, bacteria were washed, resuspended in 100 μl PBS, out of which 10 μl were blotted on nitrocellulose filters and autoradiography performed for 7 days. Incorporated ^125I was quantitated using a gamma counter.

[2] = system: H. pylori; assay: Radioactive gastrin uptake by H. pylori; format: cell-based, Helicobacter pylori
Procedure: as §1, §2

[3] = system: H. pylori; assay: Cold inhibition assay: competition on 125I-labeled gastrin uptake by H. pylori; format: binding, Helicobacter pylori; settings: 500 nmol/l 125I-labeled gastrin, increasing concentrations of unlabeled peptide, 45 min, 37° C.
Procedure: Bacteria were incubated in the presence of 500 nmo/l ^125I-labeled gastrin and increasing concentrations of either unlabeled gastrin (G), CCK-8 (CCK), pentagastrin (Pen), somatostatin (Som) or EGF for 45 min. Bacteria were washed and radioactivity remaining in bacterial pellets was determined. One experiment representative of three.
For the cold inhibition assay, bacterial pellets were resuspended in 200 μl Brucella broth containing 500 nmol/l ^125I-labeled gastrin. Unlabeled gastrin in increasing concentrations (1250-5000 nmol/l) was added concurrently. Bacteria were incubated for 45 minutes at 37° C., after which they were extensively washed with PBS. Incorporation of ^125I-labeled gastrin was determined using a gamma counter. As controls, bacteria were incubated with ^125I-labeled gastrin (500 nmol/l) in the presence of CCK-8, pentagastrin, somatostatin or EGF at the indicated concentrations.

[4] = system: H. pylori; assay: H. pylori growth kinetics in liquid media (optical density); format: cell-based, Helicobacter pylori; settings: peptide added to liquid media at increasing concentrations, microaerophilic, up to 48 h

| Compound | labeling of control bacteria by labeled gastrin [1] | uptake (incorporation) of labeled gastrin by H. pylori ([2]; 500 nmol/l, 45 min, 37° C. (not at 4° C.), autoradiography) | radioactive counts incorporated by H. pylori before proteinase K incubation ([2]; before proteinase K incubation) [CPM] | radioactive counts incorporated by H. pylori following incubation with proteinase K ([2]; following 30 min incubation with proteinase K) [CPM] | inhibition of labeled gastrin uptake by H. pylori [3] | effect on H. pylori growth (growth curve, OD) [4] |
| --- | --- | --- | --- | --- | --- | --- |
| ^125I-labeled gastrin: 125I-labeled gastrin (IncStar Pharmatrade) used as radioligand for uptake | no labeling | only H. pylori incubated at 37 °C incorporated | 311 | 385 | – | – |
| epidermal growth factor (EGF) (NSDSECPLSHDGYCLHDGVCMYIEALDKYACNCVVGYIGERCQYRDLKWWELR; Epidermal growth factor; UniProt P01133 971-1023, looked up) [growth factor peptide found within the gastric lumen, control peptide] | – | – | – | – | no inhibition | none of the peptides had an effect |
| cholecystokinin (CCK)-8 (fragment 26-33) (DYMGWMDF-NH2; ends and bridges not checked; UniProt P06307 96-103, looked up) [CCK-8, gastrin/CCKB receptor agonist peptide comprising Trp-Met-Asp-PheNH2] | – | – | – | – | competed with gastrin on the binding to H. pylori; also recorded: inhibited labeled gastrin uptake in a dose-dependent manner | did not stimulate bacterial growth; also recorded: none of the peptides had an effect |
| C[C@H](N)C(=O)NCC(=O)N[C@H]1CSSC[C@@H](C(=O)O)NC(=O)[C@H](CO)NC(=O)[C@H]([C@@H](C)O)NC(=O)[C@H](Cc2ccccc2)NC(=O)[C@H]([C@@H](C)O)NC(=O)[C@H](CCCCN)NC(=O)[C@H](Cc2c[nH]c3ccccc23)NC(=O)[C@H](Cc2ccccc2)NC(=O)[C@H](Cc2ccccc2)NC(=O)[C@H](CC(N)=O)NC(=O)[C@H](CCCCN)NC1=O [somatostatin, somatostatin 14] | – | – | – | – | no inhibition | none of the peptides had an effect |
